# Measurements published in publication PMC10969560, “Eye Drop with Fas-Blocking Peptide Attenuates Age-Related Macular Degeneration” (Cells, 2024).
# Columns and labels:
# [1] = system: ARPE-19 cells; assay: Annexin V/PI flow cytometry apoptosis analysis in NaIO3-treated ARPE-19 cells; format: cell-based, human; details: ARPE-19, NaIO3 10 mM + peptide 700 μM, 24 h; N=3; Figure 1B
# Experimental: The efficacy of FBP on the inhibition of ARPE-19 cell apoptosis was assessed through annexin V/propidium iodide (PI) staining, followed by flow cytometry analysis. […] After 24 h of treatment with NaIO3 (10 mM) and the FBP peptide (700 μM), the cells were harvested and stained using the Dead Cell Apoptosis Kits with annexin V for Flow Cytometry (Invitrogen, Carlsbad, CA, USA), following the manufacturer’s protocol. The stained cells were collected and analyzed using a BD FACSCalibur™ system (Becton Dickinson, Franklin Lakes, NJ, USA).
# [2] = system: NF-κB, ERK, and JNK; assay: RT-PCR of cytokine and signaling pathway-related genes in NaIO3-treated ARPE-19 cells; format: cell-based, human; details: ARPE-19, NaIO3 10 mM + FBP 700 μM, 24 h; Figure 1D
# Experimental: After 24 h of treatment with NaIO3 (10 mM) and the FBP peptide (700 μM), the cells were harvested for analysis. Total RNA from the ARPE-19 cells was extracted using the RNAiso kit (Takara, Kyoto, Japan). Total RNA was reverse-transcribed into cDNA using the High-Capacity cDNA Reverse Transcription Kit (Applied Biosystems, Waltham, MA, USA). The quantification of gene expression was performed using PowerUp™ SYBR™ Green Master Mix (Thermo Fisher Scientific, Waltham, MA, USA) on an ABI 7500 Fast Real-Time PCR system (Applied Biosystems, Waltham, MA, USA). The sequences of primer pairs used for real-time PCR are depicted in Table 2.
# [3] = system: NaIO3-induced retinal degeneration mice; assay: In vivo real-time PCR of eye posterior hemisphere in NaIO3-induced retinal degeneration mouse model; set-up: species or system BALB/c mice; details: intravitreal injection, N=3, Figure 3D
# Text: The mouse eye posterior hemisphere was dissected using Vannas scissors. Subsequently, total RNA was extracted from the posterior hemisphere of the left eye using the RNAiso kit (Takara). RNA was reverse-transcribed with the High-Capacity cDNA Reverse Transcription Kit (Applied Biosystems, Waltham, MA, USA) and quantified using PowerUp™ SYBR™ Green Master Mix (Thermo Fisher Scientific, Waltham, MA, USA) on an ABI 7500 Fast Real-Time PCR system (Applied Biosystems, Waltham, MA, USA). Relative expression was determined using the ΔΔCt method, normalized against GAPDH mRNA levels. The primer sequences used are depicted in Table 2.
# [4] = system: Fas/FasL; details: neuronal cells; previous study; cited from earlier work
sequence,measurement,setting,value
YCDEHFCY [FBP],apoptosis (annexin V/PI staining) compared with mock group,[1],statistically significant decrease in apoptosis
same,"levels of NF-κB, ERK, and JNK (RT-PCR)",[2],decreased levels
same,"levels of M2 macrophages compared to the mock group (qPCR, CD206)",[3],increased levels
same,"expression of Fas receptor, inflammatory cytokines, and macrophages compared to the mock group (qPCR)",[3]; posterior hemisphere,decreased expression
same,inhibition of Fas/FasL ligation,[4],effective inhibition of Fas/FasL ligation
